Laboratory results reported in US5106407A, “Iodones and methods for antimicrobial use” (priority 1989, dated 1992).

Legend:
[1] = system: mixture of bacterial organisms listed in Table 1; assay: latex preservation test
Method: The latex was a vinylidene chloride-butadiene copolymer with a pH of 6.1.
(§1) Fifty gram aliquots of the latex were placed in sterile bottles and one hundred gram aliquots of the diluted cutting oil were placed in 250-mL Erlenmeyer flasks. An appropriate amount of a fresh 1 percent stock solution of (2-nitrophenyl)-iodonium 2,2-dimethyl-4,6-dioxo-1,3-dioxan-5-ylide in acetone-water was added to achieve the desired final concentrations (see Tables 5 and 6). A small portion of the respective latex or cutting oil preparation was then streaked onto Tryptic Soy Agar (TSA) petri plates using sterile cotton swabs to determine whether the preparations were sterile. If the particular preparation was sterile, it was then inoculated with an appropriate volume (0.1 mL for the latex and 0.2 mL for the cutting oil) of a mixture of equal aliquots of 24 hr cultures of each of the bacterial organisms listed in Table 1 (not the fungi and yeast). The latex samples were incubated at 30° C. and the cutting oils were agitated on a rotary shaker at room temperature. After 24 hr, all samples were again streaked on TSA. All plates were then incubated at 30° C. for 48 hr and then rated 1 to 10 according to the growth rating system described in Table 4.
(§2) The results from this first set of streaks after inoculation are listed in the columns labeled streak number 1 in Tables 5 and 6. Samples with a rating of 3 or less from streak number 1 were reinoculated as described for the first inoculation above. Samples with a rating of 4 or greater were not reinoculated. After another 24 hr all samples were again restreaked on TSA agar. The results from these second streaks were labeled streak number 2 in Tables 5 and 6. Samples were reinoculated and restreaked in this fashion for a maximum of 10 streaks. Any samples with two streaks in a row with a ten rating were not restreaked again.

[2] = system: bacteria listed in Table I, Klebsiella oxytoca, Enterobacter gergoviae, Pseudomonas putida #1, and Pseudomonas putida #2; assay: hand creme preservation test
Method: as §1, §2
The ingredients of the hand creme, hand lotion, and protein shampoo are listed in Tables 7, 8 and 9, respectively. In the cosmetic preservative procedures, the stock solution of (2-nitrophenyl)-iodonium 2,2-dimethyl-4,6-dioxo-1,3-dioxan-5-ylide) was made in dimethylformamide (DMF)/water solution. In addition to the bacteria listed in Table I, the following bacteria were also included in the inocula: Klebsiella oxytoca, Enterobacter gergoviae, Pseudomonas putida #1, and Pseudomonas putida #2.

[3] = system: Selenastrum capricornutum; assay: algaecide test, inhibition of growth; assay type: cell-based; settings: 96 hr incubation, read-out: growth of the algae, Percent of Control
Method: Using a Coulter Counter, the growth of this algea was measured after 96 hr incubation with various levels of biocide, i.e., (2-nitrophenyl)-iodonium 2,2-dimethyl-4,6-dioxo-1,3-dioxan-5-ylide.

`CC1(C)OC(=O)[C-]([I+]c2ccccc2[N+](=O)[O-])C(=O)O1` [Example 19, (2-Nitrophenyl)-iodonium 2,2-dimethyl-4,6-dioxo-1,3-dioxan-5-ylide] was tested, and the growth rating ([1]; 25 ppm, streak 1) was 1 (0), the growth rating ([1]; 25 ppm, streak 2) was 9 and the growth rating ([1]; 25 ppm, streak 3) was 1 (0). For the same compound, the growth rating ([1]; 25 ppm, streak 4) was 1 (0), the growth rating ([1]; 25 ppm, streak 5) was 1 (0) and the growth rating ([1]; 25 ppm, streak 6) was 1 (0). The growth rating ([1]; 25 ppm, streak 7) was 1 (0), the growth rating ([1]; 25 ppm, streak 8) was 1 (0) and the growth rating ([1]; 50 ppm, streak 1) was 1 (0). For the same compound, the growth rating ([1]; 50 ppm, streak 3) was 1 (0), the growth rating ([1]; 50 ppm, streak 4) was 1 (0) and the growth rating ([1]; 50 ppm, streak 5) was 1 (0). The growth rating ([1]; 50 ppm, streak 6) was 1 (0), the growth rating ([1]; 50 ppm, streak 7) was 1 (0) and the growth rating ([1]; 50 ppm, streak 8) was 1 (0). The growth rating ([1]; 50 ppm, streak 9) was 1 (0), the growth rating ([1]; 50 ppm, streak 10) was 1 (0) and the growth rating ([1]; 100 ppm, streak 1) was 1 (0). For the same compound, the growth rating ([1]; 100 ppm, streak 3) was 1 (0), the growth rating ([1]; 100 ppm, streak 4) was 1 (0) and the growth rating ([1]; 100 ppm, streak 5) was 1 (0). The growth rating ([1]; 100 ppm, streak 6) was 1 (0), the growth rating ([1]; 100 ppm, streak 7) was 1 (0) and the growth rating ([1]; 100 ppm, streak 8) was 1 (0). The growth rating ([1]; 100 ppm, streak 9) was 1 (0), the growth rating ([1]; 100 ppm, streak 10) was 1 (0) and the growth rating ([1]; 250 ppm, streak 1) was 1 (0). For the same compound, the growth rating ([1]; 250 ppm, streak 2) was 1 (0), the growth rating ([1]; 250 ppm, streak 3) was 1 (0) and the growth rating ([1]; 250 ppm, streak 4) was 1 (0). For the same compound, the growth rating ([1]; 250 ppm, streak 5) was 1 (0), the growth rating ([1]; 250 ppm, streak 6) was 1 (0) and the growth rating ([1]; 250 ppm, streak 7) was 1 (0). For the same compound, the growth rating ([1]; 250 ppm, streak 8) was 1 (0), the growth rating ([1]; 250 ppm, streak 9) was 1 (0) and the growth rating ([1]; 250 ppm, streak 10) was 1 (0). For the same compound, the growth rating ([1]; 500 ppm, streak 1) was 1 (0), the growth rating ([1]; 500 ppm, streak 2) was 1 (0) and the growth rating ([1]; 500 ppm, streak 3) was 1 (0). The growth rating ([1]; 500 ppm, streak 4) was 1 (0), the growth rating ([1]; 500 ppm, streak 5) was 1 (0) and the growth rating ([1]; 500 ppm, streak 6) was 1 (0). For the same compound, the growth rating ([1]; 500 ppm, streak 7) was 1 (0), the growth rating ([1]; 500 ppm, streak 8) was 1 (0) and the growth rating ([1]; 500 ppm, streak 9) was 1 (0). For the same compound, the growth rating ([1]; 500 ppm, streak 10) was 1 (0), the growth rating ([1]; 1000 ppm, streak 1) was 1 (0) and the growth rating ([1]; 1000 ppm, streak 2) was 1 (0). For the same compound, the growth rating ([1]; 1000 ppm, streak 3) was 1 (0), the growth rating ([1]; 1000 ppm, streak 4) was 1 (0) and the growth rating ([1]; 1000 ppm, streak 5) was 1 (0). The growth rating ([1]; 1000 ppm, streak 6) was 1 (0), the growth rating ([1]; 1000 ppm, streak 7) was 1 (0) and the growth rating ([1]; 1000 ppm, streak 8) was 1 (0). For the same compound, the growth rating ([1]; 1000 ppm, streak 9) was 1 (0), the growth rating ([1]; 1000 ppm, streak 10) was 1 (0) and the growth rating ([2]; 10 ppm, streak 1) was 1 (0). The growth rating ([2]; 10 ppm, streak 2) was 1 (0), the growth rating ([2]; 10 ppm, streak 3) was 1 (0) and the growth rating ([2]; 10 ppm, streak 4) was 1 (0). The growth rating ([2]; 10 ppm, streak 5) was 1 (0), the growth rating ([2]; 10 ppm, streak 6) was 5 (26-50) and the growth rating ([2]; 10 ppm, streak 7) was 1 (0). For the same compound, the growth rating ([2]; 10 ppm, streak 8) was 8 (210-300), the growth rating ([2]; 10 ppm, streak 9) was 1 (0) and the growth rating ([2]; 10 ppm, streak 10) was 7 (101-200). The growth rating ([2]; 50 ppm, streak 1) was 1 (0), the growth rating ([2]; 50 ppm, streak 2) was 1 (0) and the growth rating ([2]; 50 ppm, streak 3) was 1 (0). The growth rating ([2]; 50 ppm, streak 4) was 1 (0), the growth rating ([2]; 50 ppm, streak 5) was 1 (0) and the growth rating ([2]; 50 ppm, streak 6) was 1 (0). For the same compound, the growth rating ([2]; 50 ppm, streak 7) was 1 (0), the growth rating ([2]; 50 ppm, streak 8) was 1 (0) and the growth rating ([2]; 50 ppm, streak 9) was 1 (0). The growth rating ([2]; 50 ppm, streak 10) was 7 (101-200), the growth rating ([2]; 100 ppm, streak 1) was 1 (0) and the growth rating ([2]; 100 ppm, streak 2) was 1 (0). For the same compound, the growth rating ([2]; 100 ppm, streak 3) was 1 (0), the growth rating ([2]; 100 ppm, streak 4) was 1 (0) and the growth rating ([2]; 100 ppm, streak 5) was 1 (0). For the same compound, the growth rating ([2]; 100 ppm, streak 6) was 1 (0), the growth rating ([2]; 100 ppm, streak 7) was 1 (0) and the growth rating ([2]; 100 ppm, streak 8) was 1 (0). The growth rating ([2]; 100 ppm, streak 9) was 4 (11-25), the growth rating ([2]; 100 ppm, streak 10) was 7 (101-200) and the activity at 0.01 ppm ([3]; 0.01 ppm) was 77%. For the same compound, the activity at 0.1 ppm ([3]; 0.1 ppm) was 2.4%, the activity at 1 ppm ([3]; 1.0 ppm) was 0.65% and the activity at 10 ppm ([3]; 10 ppm) was 0.59%. For the same compound, the activity at 32 ppm ([3]; 32 ppm) was 0.53%.
